In article PMC4172726, “3-Dimensional Culture Systems for Anti-Cancer Compound Profiling and High-Throughput Screening Reveal Increases in EGFR Inhibitor-Mediated Cytotoxicity Compared to Monolayer Culture Systems” (PLoS ONE, 2014):
Read-outs that look alike come from different tables or passages of the source.

Columns and labels:
[1] = tested on: wild type K-Ras colon cancer cells; design: method as in PMID 23555746; conditions: 3D spheroids in laminin-rich extracellular matrix, concomitant reduction in EGFR levels; cited from earlier work
[2] = tested on: MCF-10A cells; experiment: Single concentration primary screen of ADC library, ATP content, MCF-10A cells 2D and 3D; assay type: cell-based, human; conditions: MCF-10A normal cells, 5 µM, 48 h
Description: For single concentration point primary screens, the BT-474 cells were seeded at 3000 cells/well (in RPMI+10% FBS+PSG medium) and the MCF-10A cells at 1000 cells per well (in 50/50 DMEM/F12, 5% FHS, 0.5 µg/mL hydrocortisone, 5 µg/mL insulin, 5 ng/mL rhEGF, PSG) in 96-well Corning #3595 (for 2D) or Corning #7007 (for 3D) plates. Dilution plates were made by diluting the compounds 1∶1 with 50% medium/50% DMSO to yield a final concentration of 5 µM per well.

[3] = tested on: BT-474 cells; experiment: Cytotoxicity concentration-response assay (CellTiter GLO, cellular ATP) in BT-474 cells cultured in 2D or 3D
[4] = tested on: BT-474 cells; experiment: Single concentration primary screen of ADC library, ATP content, BT-474 cells 2D and 3D; conditions: 5 µM; for hit in primary screen (decreasing ATP content by 50% or more compared to vehicle treated cells): BT-474 tumor cells, 48 h, 2D and 3D; for selectivity for BT-474 cells over MCF-10A cells in primary screen: 3D culture conditions
[5] = tested on: MCF-10A cells; experiment: Cytotoxicity concentration-response assay (CellTiter GLO, cellular ATP) in MCF-10A cells cultured in 2D or 3D; assay type: cell-based, human; conditions: MCF-10A 3D spheroid, 48 h treatment, read-out: EC50 (concentration at which the compound reduces cell viability by 50%)
Description: To generate 3D miniature cultures for HTS, cells were seeded at a cell number observed to consistently form a single, uniformly round spheroid.
(§1) To quantitate cellular ATP as a measure of viability, 50 µL of CellTiter GLO reagent (Promega) was added to each well. […] In addition, spheroids were triturated six times to promote complete lysis.

[6] = tested on: HF+HE co-cultures; experiment: Concentration-response cell viability assay (CellTiterGLO) in HF+HE co-cultures; assay type: cell-based, human; conditions: for EC50: Homo sapiens, 48 h, 15-point concentration response
Description: (§2) For co-cultures in 3D, trypsinized cells were counted and mixed together to be seeded into 96-well round-bottom ultralow attachment plates (Corning #7007). As indicated in the legends, either the total cell number was held at 3000 cells per well, or 3000 BT-474 cells were seeded together with 1500 HFs and/or HUVECs. As we observed with the monotypic spheroids, the co-cultures also spontaneously formed one spheroid per well during the 48-hour incubation period. By analysis of ATP levels, the co-culture spheroids were viable for 5 days without a medium change or addition of supplements. All the co-cultures were maintained in a 1∶1∶1 mixture of RPMI:DMEM:EGM-2 complete media. The 2D co-cultures were plated at the same ratio of cells in the same mixed medium, but in flat bottom 96-well tissue culture plates (Corning #3595). Forty-eight hours after plating, the 2D or 3D cells were used for cytotoxicity assays, screening, or immunostaining as described in subsequent Methods sections.
as §1
(§3) For the co-culture screens, serial dilution primary screening was used. The cells were seeded in 96-well plates at 1500 HF+1500 HUVEC cells per well for the human fibroblast and human endothelial cell (HF+HE) co-cultures (in EGM-2 complete medium), or 750 HF+750 HUVEC+1500 BT-474 for the BT-474+HF+HE co-cultures (in 1∶1 RPMI+10% FBS+PSG: EGM-2 complete medium). Cells seeded in Corning #7007 round bottom, ultra-low attachment plates formed a single 3D spheroid per well while cells seeded in Corning #3595 flat bottom, tissue culture-treated plates attached as a 2D monolayer. […] Spheroid lysis was further aided by mixing 100 µl of volume using the STAR liquid handler, and then 75 µl was transferred to a Greiner Lumitrac 96-well plate for luminescence reading on a PE Envision plate reader. For the monolayer plates, 75 µl was transferred to the Greiner Lumitrac plates per well, and also read on the PE Envision.

[7] = tested on: BT-474+HF+HE co-cultures; experiment: Concentration-response cell viability assay (CellTiterGLO) in BT-474+HF+HE co-cultures; assay type: cell-based, human; conditions: for EC50: Homo sapiens, 48 h, 15-point concentration response
Description: as §2, §1, §3

[8] = tested on: HF cells cultured as 3D spheroids; experiment: Cell viability assay of HF spheroids (Figure S1A)
Description: All spheroids were cultured and treated as in Figure 3A–B. Figure represents 2 experiments performed in duplicate and table utilizes EC50 values from Figure 3 as a direct comparison. B, immunofluorescent and brightfield overlay images of BT-474 cells (3 k cells, brightfield), HEs (1 k cells, green) and HFs (1 k cells, red) cultured as spheroids for 48 h before addition of vehicle (0.1% DMSO, left panel) or 10 µM Lapatinib for 48 h (right panel).

[9] = Homo sapiens, BT-474, 48 h, read-out: EC50 (concentration at which the compound reduces cell viability by 50%), BT-474 3D spheroid, 48 h treatment

Row | SMILES | hit in primary screen (decreasing ATP content by 50% or more compared to vehicle treated cells) [2] | EC50 [3, 9] | hit in primary screen (decreasing ATP content by 50% or more compared to vehicle treated cells) [4] | EC50 ([5]; Homo sapiens, MCF-10A, 48 h) | selectivity for BT-474 cells over MCF-10A cells in primary screen [4] | other results
1 | COc1cc2ncnc(Nc3cccc(Cl)c3)c2cc1OC [AG-1478, Tyrphostin AG1478] | – | – | – | – | – | sensitivity in 3D spheroids [1]: decreased sensitivity
2 | Cc1nc(Nc2ncc(C(=O)Nc3c(C)cccc3Cl)s2)cc(N2CCN(CCO)CC2)n1 [dasatinib] | only under 2D culture conditions | < 10 µM | hits under both 2D and 3D culture conditions | – | – | EC50 ([3]; Homo sapiens, BT-474, read-out: calculated EC50 values in confirmatory dose response assays, BT-474, culture condition (2D/3D) not given): 6 to 8 µM; EC50 ([3]; read-out: EC50 (concentration at which the compound reduces cell viability by 50%), BT-474 3D spheroid, 48 h treatment): 8.1 µM
3 | COc1cc2ncnc(Nc3ccc(F)c(Cl)c3)c2cc1OCCCN1CCOCC1 [gefitinib] | only under 2D culture conditions | – | hits under both 2D and 3D culture conditions | – | – | –
4 | CS(=O)(=O)CCNCc1ccc(-c2ccc3ncnc(Nc4ccc(OCc5cccc(F)c5)c(Cl)c4)c3c2)o1 [lapatinib] | only under 2D culture conditions | – | hits under both 2D and 3D culture conditions | > 5 µM | – | EC50 [5]: 9.8 µM; sensitivity of BT-474 spheroids compared to BT-474+HF+HE co-cultures ([3]; 3D spheroids): more sensitive; fold less sensitive than BT-474 cancer cell spheroids ([6]; HF+HE spheroids, 3D, Figure S1A): 100 fold; EC50 ([6]; HF+HE 2D co-culture): 2.7 µM; EC50 ([6]; HF+HE 3D co-culture): 30 µM; difference in sensitivity between 3D BT-474+HF+HE and 3D HF+HE co-cultures ([7]; 3D, ratio of EC50 values): about 30 fold; EC50 ([7]; BT-474+HF+HE 2D co-culture): 3.5 µM; EC50 ([7]; BT-474+HF+HE 3D co-culture): 0.9 µM; fold less sensitive than BT-474 cancer cell spheroids [8]: 10 fold
5 | CC[C@]1(O)C[C@@H]2CN(CCc3c([nH]c4ccccc34)[C@@](C(=O)OC)(c3cc4c(cc3OC)N(C)[C@H]3[C@@](O)(C(=O)OC)[C@H](OC(C)=O)[C@]5(CC)C=CCN6CC[C@]43[C@@H]65)C2)C1 [vinblastine] | – | – | – | – | slight selectivity | –
6 | CCC1=C[C@@H]2CN(C1)Cc1c([nH]c3ccccc13)[C@@](C(=O)OC)(c1cc3c(cc1OC)N(C)[C@H]1[C@@](O)(C(=O)OC)[C@H](OC(C)=O)[C@]4(CC)C=CCN5CC[C@]31[C@@H]54)C2 [vinorelbine] | we did not identify vinorelbine as a “hit” | 5.2 µM | – | > 100 µM | slight selectivity | –
